Literature values, collected in US20150191797A1, “SYSTEMS AND METHODS FOR DIAGNOSING A PREDISPOSITION TO COLON CANCER” (Institute for Cancer Research d/b/a The Research Institute …, priority 2012, published 2015).

Tested on: Werner cells
Conditions: camptothecin doses of 20-50 nM

CC[C@@]1(O)C(=O)OCc2c1cc1n(c2=O)Cc2cc3ccccc3nc2-1 [Camptothecin, camptothecin]
effect on cell cycle: S phase delay | increase in apoptosis: 5-6 fold
